One molecule from ChEMBL document CHEMBL1177769, “Reducing ion channel activity in a series of 4-heterocyclic arylamide FMS inhibitors” (Bioorg Med Chem Lett, 2010) can be followed below.

Holding throughout (format): ADME, organism-based
Common to all, as to conditions: in vivo

Data set [1] is described as follows: Cmax in rat at 0.5 mg/kg, iv and 5 mg/kg, po.
Data set [2] is described as follows: Volume of distribution in rat at 0.5 mg/kg, iv and 5 mg/kg, po.
Data set [3] relates to Rattus norvegicus. Description: Liver blood flow in rat at 0.5 mg/kg, iv and 5 mg/kg, po.
Data set [4] can be described thus: Bioavailability in rat at 0.5 mg/kg, iv and 5 mg/kg, po.

Structures are written as SMILES.

What is called Cmax is the peak of the concentration-time curve. For orientation: bioavailability means dose-corrected exposure relative to a reference, in per cent. In data set [1], `CN1CC(c2ccc(NC(=O)c3nc(C#N)c[nH]3)c(C3=CCCCC3)c2)CN(C)S1(=O)=O` showed a Cmax of 839 ng/mL. For the same molecule, in data set [2], the Vd is 0.564 L/kg. This molecule registered an LBF in data set [3] of 55 mL/min/kg. For the same molecule, the bioavailability in data set [4] came to 15%.
